# Test system: Soybeans
# Experiment: Pre-emergence stage, crop selectivity
# Format: in vivo
# Settings: 30 g/ha, 4 weeks
# Experimental: (§1) The activity level criteria for plant damage (i.e., growth control rate) are as follows:
# (§2) The aforementioned seeds of monocotyledonous and dicotyledonous weeds and main crops were put into a plastic pot loaded with soil and covered with 0.5-2 cm soil. The test compounds of the present invention was dissolved with acetone, then added with tween 80, diluted by a certain amount of water to reach a certain concentration, and sprayed immediately after sowing. The obtained seeds were incubated for 4 weeks in the greenhouse after spraying and the test results were observed. It was observed that the herbicide mostly had excellent effect at the application rate of 500, 250, 125, 60, 30, 15, 7.5 g/ha, especially to weeds such as Echinochloa crusgalli. Digitaria sanguinalis and Abutilon theophrasti, etc. And many compounds had good selectivity for corn, cotton, wheat, rice, soybean, and peanut etc. In addition, evaluate the weed control effect with the above activity standard level.
row,SMILES,plant damage level Soybeans
1,CCOC(=O)COC(=O)[C@@H](C)O/N=C/c1cc(-n2c(=O)cc(C(F)(F)F)n(C)c2=O)c(F)cc1Cl [239(R)],0 (Level 0: growth control rate is less than 5%)
2,CCOC(=O)OC(C)OC(=O)[C@@H](C)O/N=C/c1cc(-n2c(=O)cc(C(F)(F)F)n(C)c2=O)c(F)cc1Cl (stereo partly drawn) [246(R)],0 (Level 0: growth control rate is less than 5%)

# Test system: corn
# Experiment: Pre-emergence stage, crop selectivity
# Format: in vivo
# Settings: 30 g/ha, 4 weeks
# Experimental: as §1, §2
row,SMILES,plant damage level Corn
1,CCOC(=O)COC(=O)[C@@H](C)O/N=C/c1cc(-n2c(=O)cc(C(F)(F)F)n(C)c2=O)c(F)cc1Cl [239(R)],0 (Level 0: growth control rate is less than 5%)
2,CCOC(=O)OC(C)OC(=O)[C@@H](C)O/N=C/c1cc(-n2c(=O)cc(C(F)(F)F)n(C)c2=O)c(F)cc1Cl (stereo partly drawn) [246(R)],0 (Level 0: growth control rate is less than 5%)

# Test system: cotton
# Experiment: Pre-emergence stage, crop selectivity
# Format: in vivo
# Settings: 30 g/ha, 4 weeks
# Experimental: as §1, §2
row,SMILES,plant damage level Cotton
1,CCOC(=O)COC(=O)[C@@H](C)O/N=C/c1cc(-n2c(=O)cc(C(F)(F)F)n(C)c2=O)c(F)cc1Cl [239(R)],0 (Level 0: growth control rate is less than 5%)
2,CCOC(=O)OC(C)OC(=O)[C@@H](C)O/N=C/c1cc(-n2c(=O)cc(C(F)(F)F)n(C)c2=O)c(F)cc1Cl (stereo partly drawn) [246(R)],0 (Level 0: growth control rate is less than 5%)

# Test system: Peanut
# Experiment: Pre-emergence stage, crop selectivity
# Format: in vivo
# Settings: 30 g/ha, 4 weeks
# Experimental: as §1, §2
row,SMILES,plant damage level Peanut
1,CCOC(=O)COC(=O)[C@@H](C)O/N=C/c1cc(-n2c(=O)cc(C(F)(F)F)n(C)c2=O)c(F)cc1Cl [239(R)],0 (Level 0: growth control rate is less than 5%)
2,CCOC(=O)OC(C)OC(=O)[C@@H](C)O/N=C/c1cc(-n2c(=O)cc(C(F)(F)F)n(C)c2=O)c(F)cc1Cl (stereo partly drawn) [246(R)],0 (Level 0: growth control rate is less than 5%)

# Test system: Descurainia sophia
# Experiment: Weeding effect in pre-emergence stage
# Format: in vivo
# Settings: 30 g/ha, 4 weeks
# Experimental: as §1, §2
row,SMILES,activity level (growth control rate) Descurainia sophia
1,CCOC(=O)COC(=O)[C@@H](C)O/N=C/c1cc(-n2c(=O)cc(C(F)(F)F)n(C)c2=O)c(F)cc1Cl [239(R)],5 (Level 5: growth control rate is above 85%)
2,CCOC(=O)OC(C)OC(=O)[C@@H](C)O/N=C/c1cc(-n2c(=O)cc(C(F)(F)F)n(C)c2=O)c(F)cc1Cl (stereo partly drawn) [246(R)],5 (Level 5: growth control rate is above 85%)

# Test system: Amaranthus retroflexus
# Experiment: Weeding effect in pre-emergence stage
# Format: in vivo
# Settings: 30 g/ha, 4 weeks
# Experimental: as §1, §2
row,SMILES,activity level (growth control rate) Amaranthus retroflexus
1,CCOC(=O)COC(=O)[C@@H](C)O/N=C/c1cc(-n2c(=O)cc(C(F)(F)F)n(C)c2=O)c(F)cc1Cl [239(R)],5 (Level 5: growth control rate is above 85%)
2,CCOC(=O)OC(C)OC(=O)[C@@H](C)O/N=C/c1cc(-n2c(=O)cc(C(F)(F)F)n(C)c2=O)c(F)cc1Cl (stereo partly drawn) [246(R)],5 (Level 5: growth control rate is above 85%)

# Test system: Capsella bursa-pastoris
# Experiment: Weeding effect in pre-emergence stage
# Format: in vivo
# Settings: 30 g/ha, 4 weeks
# Experimental: as §1, §2
row,SMILES,activity level (growth control rate) Capsella bursa-pastoris
1,CCOC(=O)COC(=O)[C@@H](C)O/N=C/c1cc(-n2c(=O)cc(C(F)(F)F)n(C)c2=O)c(F)cc1Cl [239(R)],5 (Level 5: growth control rate is above 85%)
2,CCOC(=O)OC(C)OC(=O)[C@@H](C)O/N=C/c1cc(-n2c(=O)cc(C(F)(F)F)n(C)c2=O)c(F)cc1Cl (stereo partly drawn) [246(R)],5 (Level 5: growth control rate is above 85%)

# Test system: Abutilon theophrasti
# Experiment: Weeding effect in pre-emergence stage
# Format: in vivo
# Settings: 30 g/ha, 4 weeks
# Experimental: as §1, §2
row,SMILES,activity level (growth control rate) Abutilon theophrasti
1,CCOC(=O)COC(=O)[C@@H](C)O/N=C/c1cc(-n2c(=O)cc(C(F)(F)F)n(C)c2=O)c(F)cc1Cl [239(R)],5 (Level 5: growth control rate is above 85%)
2,CCOC(=O)OC(C)OC(=O)[C@@H](C)O/N=C/c1cc(-n2c(=O)cc(C(F)(F)F)n(C)c2=O)c(F)cc1Cl (stereo partly drawn) [246(R)],5 (Level 5: growth control rate is above 85%)

# Test system: Setaria viridis
# Experiment: Weeding effect in pre-emergence stage
# Format: in vivo
# Settings: 30 g/ha, 4 weeks
# Experimental: as §1, §2
row,SMILES,activity level (growth control rate) Setaria viridis
1,CCOC(=O)COC(=O)[C@@H](C)O/N=C/c1cc(-n2c(=O)cc(C(F)(F)F)n(C)c2=O)c(F)cc1Cl [239(R)],5 (Level 5: growth control rate is above 85%)
2,CCOC(=O)OC(C)OC(=O)[C@@H](C)O/N=C/c1cc(-n2c(=O)cc(C(F)(F)F)n(C)c2=O)c(F)cc1Cl (stereo partly drawn) [246(R)],5 (Level 5: growth control rate is above 85%)

# Test system: Veronica didyma Tenore
# Experiment: Weeding effect in pre-emergence stage
# Format: in vivo
# Settings: 30 g/ha, 4 weeks
# Experimental: as §1, §2
row,SMILES,activity level (growth control rate) Veronica didyma Tenore
1,CCOC(=O)COC(=O)[C@@H](C)O/N=C/c1cc(-n2c(=O)cc(C(F)(F)F)n(C)c2=O)c(F)cc1Cl [239(R)],5 (Level 5: growth control rate is above 85%)
2,CCOC(=O)OC(C)OC(=O)[C@@H](C)O/N=C/c1cc(-n2c(=O)cc(C(F)(F)F)n(C)c2=O)c(F)cc1Cl (stereo partly drawn) [246(R)],5 (Level 5: growth control rate is above 85%)

# Test system: Digitaria sanguinalis
# Experiment: Weeding effect in post-emergence stage
# Format: in vivo
# Settings: Dose 15 g/ha; level of fresh weight growth control rate
# Method in brief: (§3)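 Weeds were treated post-emergence at 2-3 leaves with compound doses from 7.5 up to 500 g/ha, formulated in acetone–Tween 80 with methyl oleate synergist. Efficacy was assessed as growth control after 3 weeks.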
row,SMILES,"Weeding effect in post-emergence stage, Digitaria sanguinalis"
1,CCOC(=O)COC(=O)[C@@H](C)O/N=C/c1cc(-n2c(=O)cc(C(F)(F)F)n(C)c2=O)c(F)cc1Cl [239(R)],5 (Level 5: growth control rate is above 85%)
2,CCOC(=O)OC(C)OC(=O)[C@@H](C)O/N=C/c1cc(-n2c(=O)cc(C(F)(F)F)n(C)c2=O)c(F)cc1Cl (stereo partly drawn) [246(R)],5 (Level 5: growth control rate is above 85%)

# Test system: Abutilon theophrasti
# Experiment: Weeding effect in post-emergence stage
# Format: in vivo
# Settings: Dose 15 g/ha; level of fresh weight growth control rate
# Method in brief: as §3
row,SMILES,"Weeding effect in post-emergence stage, Abutilon theophrasti"
1,CCOC(=O)COC(=O)[C@@H](C)O/N=C/c1cc(-n2c(=O)cc(C(F)(F)F)n(C)c2=O)c(F)cc1Cl [239(R)],5 (Level 5: growth control rate is above 85%)
2,CCOC(=O)OC(C)OC(=O)[C@@H](C)O/N=C/c1cc(-n2c(=O)cc(C(F)(F)F)n(C)c2=O)c(F)cc1Cl (stereo partly drawn) [246(R)],5 (Level 5: growth control rate is above 85%)

# Test system: Setaria viridis
# Experiment: Weeding effect in post-emergence stage
# Format: in vivo
# Settings: Dose 15 g/ha; level of fresh weight growth control rate
# Method in brief: as §3
row,SMILES,"Weeding effect in post-emergence stage, Setaria viridis"
1,CCOC(=O)COC(=O)[C@@H](C)O/N=C/c1cc(-n2c(=O)cc(C(F)(F)F)n(C)c2=O)c(F)cc1Cl [239(R)],5 (Level 5: growth control rate is above 85%)
2,CCOC(=O)OC(C)OC(=O)[C@@H](C)O/N=C/c1cc(-n2c(=O)cc(C(F)(F)F)n(C)c2=O)c(F)cc1Cl (stereo partly drawn) [246(R)],5 (Level 5: growth control rate is above 85%)

# Test system: Eleusine indica
# Experiment: Weeding effect in post-emergence stage
# Format: in vivo
# Settings: Dose 15 g/ha; level of fresh weight growth control rate
# Method in brief: as §3
row,SMILES,"Weeding effect in post-emergence stage, Eleusine indica"
1,CCOC(=O)COC(=O)[C@@H](C)O/N=C/c1cc(-n2c(=O)cc(C(F)(F)F)n(C)c2=O)c(F)cc1Cl [239(R)],5 (Level 5: growth control rate is above 85%)
2,CCOC(=O)OC(C)OC(=O)[C@@H](C)O/N=C/c1cc(-n2c(=O)cc(C(F)(F)F)n(C)c2=O)c(F)cc1Cl (stereo partly drawn) [246(R)],5 (Level 5: growth control rate is above 85%)

# Test system: Alopecurus japonicus
# Experiment: Weeding effect in post-emergence stage
# Format: in vivo
# Settings: Dose 15 g/ha; level of fresh weight growth control rate
# Method in brief: as §3
row,SMILES,"Weeding effect in post-emergence stage, Alopecurus japonicus"
1,CCOC(=O)COC(=O)[C@@H](C)O/N=C/c1cc(-n2c(=O)cc(C(F)(F)F)n(C)c2=O)c(F)cc1Cl [239(R)],5 (Level 5: growth control rate is above 85%)
2,CCOC(=O)OC(C)OC(=O)[C@@H](C)O/N=C/c1cc(-n2c(=O)cc(C(F)(F)F)n(C)c2=O)c(F)cc1Cl (stereo partly drawn) [246(R)],5 (Level 5: growth control rate is above 85%)

# Test system: Echinochloa crusgalli
# Experiment: Weeding effect in post-emergence stage
# Format: in vivo
# Settings: Dose 15 g/ha; level of fresh weight growth control rate
# Method in brief: as §3
row,SMILES,"Weeding effect in post-emergence stage, Echinochloa crusgalli"
1,CCOC(=O)COC(=O)[C@@H](C)O/N=C/c1cc(-n2c(=O)cc(C(F)(F)F)n(C)c2=O)c(F)cc1Cl [239(R)],5 (Level 5: growth control rate is above 85%)
2,CCOC(=O)OC(C)OC(=O)[C@@H](C)O/N=C/c1cc(-n2c(=O)cc(C(F)(F)F)n(C)c2=O)c(F)cc1Cl (stereo partly drawn) [246(R)],5 (Level 5: growth control rate is above 85%)
